Each block holds one molecule with its values, some of them ahead of it.
What was measured:
[1] = molecular target: EGFR L858R (Homo sapiens (Human), UniProt P00533, L858R); experiment: Mobility Shift Assay, in vitro enzyme-inhibiting activity, EGFR L858R; format: biochemical; conditions: Table 5
Procedure: (§1) 1. Preparation of Reagents
(§2) 2. Preparation of a Compound Solution
(§3) (1) To the second well of a 96-well plate, 5 μL 10 mM compound (dissolved in DMSO) was added, and 95 μL 100% DMSO was added to prepare 100 μL 0.5 mM compound.
(§4) (2) To other wells, 60 μL 100% DMSO was added. 20 μL compound from the second well was added to the third well, and 4-fold dilution was further performed to get 10 diluted concentrations.
(§5) (3) To the first well and the twelfth well of the 96-well plate, 100 μL 100% DMSO was separately added, and the two wells were used as control wells.
(§6) (4) 10 μL from each well of the 96-well plate was added to another 96-well plate, and 90 μL 1-fold kinase buffer was added.
(§7) (5) 5 μL from the 96-well plate was added to another 384-well plate, for example, transferred from A1 well of the 96-well plate to A1 and A2 wells of the 384-well plate, and transferred from A2 well of the 96-well plate to A3 and A4 wells of the 384-well plate, and so on.
(§8) To 384-well plate, 10 μL 2.5-fold enzyme solution was added, and incubated at room temperature for 10 min.
(§9) (5) Kinase reaction and stop
(§10) After incubation at 28° C. for a period of time (depending on kinase), 25 μL stop solution was added.
(§11) 4. Data on percent conversion was read by Caliper.
(§12) (1) Data on enzyme activity was obtained by Caliper program;
(§13) (2) Inhibition rate of enzyme activity was calculated from the data on enzyme activity by the following formula: Inhibition rate(%)=(maximal value−the measured value of a test compound)/(maximal value-minimal value)×100,
(§14) wherein, the maximal value represents the measured value of DMSO control; and the minimal value represents the measured value of blank control.
(§15) (3) Calculation of IC50 value by XLFit excel.

[2] = test system: H1975 cell (EGFR-T790M/L858R double mutation); experiment: In vitro cytologic activity, Celltiter-Glo, H1975 cells; format: cell-based, human; conditions: for IC50: Homo sapiens, NCI-H1975, 72 h, 72 h, Celltiter-Glo
Procedure: (§16) 1.1 Preparation of Cell Suspension
(§17) Culture medium was removed from culture bottle;
(§18) PBS was added to wash the cells; • pancreatin was added for digestion, and the cells were collected by centrifugation; • the cells were resuspended in a culture medium containing 10% fetal bovine serum, counted and adjusted to a concentration of 2×10^4/mL or 3×10^4/mL (cell viability must be greater than 90%); • the cell suspension was added to a 96-well plate, at 100 μL for each well, i.e., 2000/well for H1975 cell; 3000/well for A431 cell; and • the cells were cultured at 37° C. in 5% CO2 incubator overnight.
(§19) Dilution of a compound in DMSO (or water for injection) • (1) The compound was 5-fold diluted with DMSO from 10 mM to 2 mM, and then 4-fold diluted from 2 mM, to get 10 concentrations; • High control (HC, control without compound inhibition): 0.5% DMSO; • Low control (LC, control with compound inhibition): 1000 nM.
(§20) i. To each well, 99 μL growth medium containing 10% FBS was added, and then 1 μL diluted compound was added, the total volume of the well was […], and the final concentration of the compound was measured.
(§21) The test plate was left at room temperature, and equilibrated for 30 min. 80 μL culture medium was discarded. 60 μL CTG reagent (Celltiter-Glo kit) was added, and shaked for 2 min in a fast shaker, and was placed at room temperature for 10 min. The values were read by Envision instrument.

[3] = test system: A431 cell (wild-type EGFR gene); experiment: In vitro cytologic activity, Celltiter-Glo, A431 cells; format: cell-based; conditions: Homo sapiens, A-431, 72 h
Procedure: as §16, §17, §18, §19, §20, §21

[4] = molecular target: EGFR (d746-750) (Homo sapiens (Human), UniProt P00533, DEL746-750); experiment: Mobility Shift Assay, in vitro enzyme-inhibiting activity, EGFR (d746-750); format: biochemical; conditions: Table 5
Procedure: as §1, §2, §3, §4, §5, §6, §7, §8, §9, §10, §11, §12, §13, §14, §15

[5] = molecular target: EGFR T790M-L858R (Homo sapiens (Human), UniProt P00533, L858R/T790M); experiment: Mobility Shift Assay, in vitro enzyme-inhibiting activity, EGFR T790M-L858R; format: biochemical; conditions: Table 5
Procedure: as §1, §2, §3, §4, §5, §6, §7, §8, §9, §10, §11, §12, §13, §14, §15

[6] = molecular target: EGFR T790M (Homo sapiens (Human), UniProt P00533, T790M); experiment: Mobility Shift Assay, in vitro enzyme-inhibiting activity, EGFR T790M; format: biochemical; conditions: Table 1
Procedure: as §1, §2, §3, §4, §5, §6, §7, §8, §9, §10, §11, §12, §13, §14, §15

[7] = molecular target: wild-type EGFR (WT EGFR) (Homo sapiens (Human), UniProt P00533); experiment: Mobility Shift Assay, in vitro enzyme-inhibiting activity, wild-type EGFR; format: biochemical; conditions: Km ATP
Procedure: as §1, §2, §3, §4, §5, §6, §7, §8, §9, §10, §11, §12, §13, §14, §15

[8] = Pharmacokinetics in nude mouse; format: in vivo; conditions: female, BALB/c nude, plasma
Procedure: Test animal: female nude mouse (BALB/c), weight: 20-25 g/mouse.
Solvent for intraveneous injection (iv): 5% DMSO+10% PEG400+85% (28% HP-β-CD)
Solvent for intragastric administration (po): 2% HPC+0.1% Tween 80
0.1283 mL and 0.1059 mL 1M hydrochloric acid solution were separately added to adjust pH to 4.
Compound 2, 27: Compound 27 (3.18 mg) and Compound 2 (3.17 mg) were weighed, respectively, and solvent for intraveneous injection was added to prepare a clear and transparent solution at a theoretical concentration of 1.0 mg/mL.
After homogeneous dispersion, a suspension at a theoretical concentration of 1.0 mg/mL was obtained.
Collection time point: 0.083 h, 0.25 h, 0.5 h, 1 h, 2 h, 4 h, 6 h, 8 h after administration.
60 μL whole blood was collected from intraocular canthus at each time point, and was centrifuged at 8000 r/min for 6 min in a low-temperature centrifuge to separate plasma; the plasma was stored in a refrigerator at −80° C.
The plasma sample of Compound 2 was analyzed by means of protein precipitation: 10 μL plasma was transferred to a 1.5 mL EP tube, 10 μL blank plasma was added, and the mixture was mixed homogeneously under vortexing. 200 μL internal standard (acetonitrile solution containing 25 ng/mL CNX-2006) was added; the resultant mixture was vortexted for 3 min, and then centrifuged at 12000 rpm for 5 min; 150 μL supernatant was accurately taken, to which 50 μL purified water was added. The resultant mixture was vortexed for 3 min and analyzed by LC-MS/MS.

[9] = test system: H1975 human non-small cell lung cancer xenograft; experiment: Pharmacodynamics in vivo, H1975 xenograft tumor-bearing nude mice; parameters: species or system BALB/c nude mouse; conditions: PO; for TV (tumor volume) / Body weight After administration / Body weight Before administration: mean ± standard error
Description: Genus: Rodent, Line: BALB/c nude, age: 6-8 weeks, gender: female, body weight: 18-22 g. Provider of experimental animals: Beijing Ankaiyibo Biological Technology Co. Ltd., Production license No. SCXK(Jing) 2012-0009. Quality Certificate No. 11402400000256 […] The tumor cells in logarithmic growth phase were used in tumor inoculation in vivo. […] When the tumor grew into a volume of about 100 mm^3, the animals were grouped and administered, 8 mice per group. […] Test compound solutions were prepared immediately before administration every day. [table] Vernier caliper was used to measure the volume of tumor twice a week. The long diameter and short diameter of tumor were measured. The volume was calculated by the formula: volume=0.5×long diameter×short diameter^2. According to the measurement results, relative tumor volume (RTV) and relative tumor volume increasing rate (T/C) were calculated. RTV=Vt/V0, wherein Vt is the average value of tumor volume on day t after grouping and administration, V0 is the average value of tumor volume at the day when grouping. T/C=TRTV/CRTV×100%, wherein TRTV is the RTV in the treatment group, and CRTV is the RTV in the solvent control group. […] One-Way ANOVA test was carried out by SPSS17.0 statistic software. Tumor volume was analysed in statistics among groups. P<0.05 is indicative of significant difference.

EGFR T790M, sequence (P00533 25-1210 T790M): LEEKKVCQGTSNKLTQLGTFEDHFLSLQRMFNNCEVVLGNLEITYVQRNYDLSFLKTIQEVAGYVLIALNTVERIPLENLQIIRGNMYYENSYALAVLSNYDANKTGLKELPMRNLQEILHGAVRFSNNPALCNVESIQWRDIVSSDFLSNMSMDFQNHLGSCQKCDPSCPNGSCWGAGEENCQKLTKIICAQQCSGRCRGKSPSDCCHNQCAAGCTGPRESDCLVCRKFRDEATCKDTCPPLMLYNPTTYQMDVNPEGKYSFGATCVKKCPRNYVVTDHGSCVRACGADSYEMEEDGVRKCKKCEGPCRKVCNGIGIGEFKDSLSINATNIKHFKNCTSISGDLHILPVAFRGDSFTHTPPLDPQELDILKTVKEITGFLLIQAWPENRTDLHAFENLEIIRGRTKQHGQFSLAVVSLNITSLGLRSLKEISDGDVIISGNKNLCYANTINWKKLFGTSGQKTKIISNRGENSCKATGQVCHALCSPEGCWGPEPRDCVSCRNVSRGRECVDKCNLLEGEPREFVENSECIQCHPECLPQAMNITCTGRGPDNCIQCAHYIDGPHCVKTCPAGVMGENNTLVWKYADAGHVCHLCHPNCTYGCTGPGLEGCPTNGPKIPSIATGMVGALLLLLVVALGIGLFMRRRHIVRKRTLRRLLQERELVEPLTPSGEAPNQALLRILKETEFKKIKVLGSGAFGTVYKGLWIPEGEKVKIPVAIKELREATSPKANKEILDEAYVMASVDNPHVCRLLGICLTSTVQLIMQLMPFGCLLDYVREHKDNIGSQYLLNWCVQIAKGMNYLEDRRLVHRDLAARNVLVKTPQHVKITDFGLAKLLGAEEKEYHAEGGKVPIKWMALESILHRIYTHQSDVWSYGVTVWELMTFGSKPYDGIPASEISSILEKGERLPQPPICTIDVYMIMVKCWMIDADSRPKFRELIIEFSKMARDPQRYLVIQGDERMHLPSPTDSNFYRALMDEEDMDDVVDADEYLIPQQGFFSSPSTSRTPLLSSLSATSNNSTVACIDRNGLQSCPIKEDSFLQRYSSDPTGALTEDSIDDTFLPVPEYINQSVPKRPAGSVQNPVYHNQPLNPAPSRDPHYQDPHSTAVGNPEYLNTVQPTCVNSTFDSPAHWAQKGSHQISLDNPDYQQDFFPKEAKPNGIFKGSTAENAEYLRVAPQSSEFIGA
EGFR L858R, sequence (P00533 25-1210 L858R): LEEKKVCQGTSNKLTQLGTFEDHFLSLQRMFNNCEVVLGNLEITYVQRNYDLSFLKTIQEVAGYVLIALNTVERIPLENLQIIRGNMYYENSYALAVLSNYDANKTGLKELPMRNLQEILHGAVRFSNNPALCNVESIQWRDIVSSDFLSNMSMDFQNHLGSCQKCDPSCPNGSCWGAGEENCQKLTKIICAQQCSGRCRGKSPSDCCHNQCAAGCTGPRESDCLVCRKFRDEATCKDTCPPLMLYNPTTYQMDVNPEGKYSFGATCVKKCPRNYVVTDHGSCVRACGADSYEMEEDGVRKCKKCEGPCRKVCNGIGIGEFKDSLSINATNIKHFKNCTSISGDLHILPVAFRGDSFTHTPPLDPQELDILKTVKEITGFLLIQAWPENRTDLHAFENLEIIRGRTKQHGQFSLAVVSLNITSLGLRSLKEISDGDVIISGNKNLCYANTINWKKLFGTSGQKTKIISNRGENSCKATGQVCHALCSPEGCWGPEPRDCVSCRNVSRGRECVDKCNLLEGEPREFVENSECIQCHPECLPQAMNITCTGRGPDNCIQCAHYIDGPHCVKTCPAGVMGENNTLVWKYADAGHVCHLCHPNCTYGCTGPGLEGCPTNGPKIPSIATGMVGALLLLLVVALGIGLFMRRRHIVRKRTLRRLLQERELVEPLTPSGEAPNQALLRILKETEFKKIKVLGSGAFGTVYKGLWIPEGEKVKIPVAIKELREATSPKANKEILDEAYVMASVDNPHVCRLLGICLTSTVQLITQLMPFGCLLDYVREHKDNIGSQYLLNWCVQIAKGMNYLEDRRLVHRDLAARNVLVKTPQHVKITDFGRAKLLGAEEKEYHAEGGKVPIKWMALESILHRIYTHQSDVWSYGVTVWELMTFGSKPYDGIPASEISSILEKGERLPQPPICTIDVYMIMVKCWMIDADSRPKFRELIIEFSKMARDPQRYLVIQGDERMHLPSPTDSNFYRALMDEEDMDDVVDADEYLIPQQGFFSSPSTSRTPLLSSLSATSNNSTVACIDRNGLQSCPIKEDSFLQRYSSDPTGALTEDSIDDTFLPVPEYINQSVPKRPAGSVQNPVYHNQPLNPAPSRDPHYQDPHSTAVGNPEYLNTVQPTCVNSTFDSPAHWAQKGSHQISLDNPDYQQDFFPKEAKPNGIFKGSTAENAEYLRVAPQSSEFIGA
EGFR (d746-750), sequence (P00533 other isoform, or with tags, fused parts or gaps del 1-668/del 746-750 limits assumed): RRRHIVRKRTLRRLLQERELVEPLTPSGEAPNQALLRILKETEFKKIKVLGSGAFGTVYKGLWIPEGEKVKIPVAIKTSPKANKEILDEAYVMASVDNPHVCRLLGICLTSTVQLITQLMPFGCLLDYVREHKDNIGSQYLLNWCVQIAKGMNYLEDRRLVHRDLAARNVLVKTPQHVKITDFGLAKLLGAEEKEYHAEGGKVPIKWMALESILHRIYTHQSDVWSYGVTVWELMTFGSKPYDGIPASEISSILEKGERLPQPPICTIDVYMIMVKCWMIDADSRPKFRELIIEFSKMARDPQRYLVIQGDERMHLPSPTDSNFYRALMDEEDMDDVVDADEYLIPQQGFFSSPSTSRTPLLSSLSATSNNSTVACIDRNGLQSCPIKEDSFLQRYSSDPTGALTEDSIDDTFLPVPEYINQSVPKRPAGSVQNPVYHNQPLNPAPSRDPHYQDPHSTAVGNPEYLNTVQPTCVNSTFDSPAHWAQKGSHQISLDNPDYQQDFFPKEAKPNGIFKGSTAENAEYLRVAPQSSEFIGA
EGFR T790M-L858R, sequence (P00533 25-1210 T790M/L858R): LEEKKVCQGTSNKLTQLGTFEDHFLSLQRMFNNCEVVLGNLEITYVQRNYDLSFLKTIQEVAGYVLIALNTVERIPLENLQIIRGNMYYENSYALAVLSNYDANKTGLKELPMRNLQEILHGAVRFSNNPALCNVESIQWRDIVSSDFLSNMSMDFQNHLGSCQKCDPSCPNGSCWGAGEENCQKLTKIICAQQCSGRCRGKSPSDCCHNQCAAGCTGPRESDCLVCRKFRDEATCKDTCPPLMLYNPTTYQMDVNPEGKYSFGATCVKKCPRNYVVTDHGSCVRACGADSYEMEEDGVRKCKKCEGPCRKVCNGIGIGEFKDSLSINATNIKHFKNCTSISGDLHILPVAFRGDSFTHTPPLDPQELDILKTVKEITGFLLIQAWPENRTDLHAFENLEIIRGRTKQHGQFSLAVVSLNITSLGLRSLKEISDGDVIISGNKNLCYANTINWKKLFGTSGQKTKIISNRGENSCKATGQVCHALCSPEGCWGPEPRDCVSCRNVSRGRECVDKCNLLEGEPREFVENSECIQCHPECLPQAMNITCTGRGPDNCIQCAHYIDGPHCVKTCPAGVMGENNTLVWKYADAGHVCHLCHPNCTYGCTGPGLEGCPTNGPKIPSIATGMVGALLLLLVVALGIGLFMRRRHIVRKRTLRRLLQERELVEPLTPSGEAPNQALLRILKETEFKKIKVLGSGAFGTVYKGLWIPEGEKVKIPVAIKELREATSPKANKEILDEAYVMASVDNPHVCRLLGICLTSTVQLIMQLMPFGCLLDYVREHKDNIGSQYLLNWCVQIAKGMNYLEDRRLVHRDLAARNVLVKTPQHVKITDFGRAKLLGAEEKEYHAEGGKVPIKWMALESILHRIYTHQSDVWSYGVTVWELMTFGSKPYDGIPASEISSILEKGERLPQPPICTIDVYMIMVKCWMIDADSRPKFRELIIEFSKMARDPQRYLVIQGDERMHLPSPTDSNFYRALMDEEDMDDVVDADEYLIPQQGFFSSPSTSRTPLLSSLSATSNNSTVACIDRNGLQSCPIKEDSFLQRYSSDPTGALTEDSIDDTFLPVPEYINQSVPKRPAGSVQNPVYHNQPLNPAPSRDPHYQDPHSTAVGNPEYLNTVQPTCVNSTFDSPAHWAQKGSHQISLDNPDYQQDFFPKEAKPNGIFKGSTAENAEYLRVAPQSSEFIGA

IC50 ([1]; Km ATP): 84.7 nM
Selectivity WT/L858R ([1]; ratio of IC50): 2.8
IC50 ([2]; Table 9): 54.2 nM
IC50 ([3]; Table 9): 448 nM
IC50 ([4]; Km ATP): 20.3 nM
Selectivity WT/d746-750 ([4]; ratio of IC50): 11.8
IC50 ([5]; Km ATP): 4.4 nM
Selectivity WT/T790M-L858R ([5]; ratio of IC50): 54.3
IC50 ([6]; Km ATP): 5.7 nM
Selectivity (WT/T790M) ([6]; ratio of IC50): 56.7
IC50 ([7]; Table 1): 323 nM
IC50 ([7]; Table 5): 240 nM
SMILES: C=CC(=O)Nc1cccc(Nc2nc(Nc3ccc(N4CCN(C(C)=O)CC4)cc3OC)ncc2C(F)(F)F)n1 [Compound 1, N-(6-((2-((4-(4-acetylpiperazin-1-yl)-2-methoxyphenyl)amino)-5-(trifluoromethyl)pyrimidin-4-yl)amino)pyridin-2-yl)acrylamide]
Selectivity (A431/H1975) ([2]; Table 9, ratio of IC50): 8.3

SMILES: C=CC(=O)Nc1cccc(Nc2nc(Nc3ccc(N4CCN(C(C)=O)CC4)cc3OC)ncc2C(F)(F)F)c1 [CO-1686, reference compound]
AUC(0-t) ([8]; iv, 5 mg/kg): 4070 ng·h/mL
clearance ([8]; iv, 5 mg/kg): 20.5 mL/min/kg
AUC(0-t) ([8]; po, 13.2 mg/kg): 2380 ng·h/mL
bioavailability ([8]; po, 13.2 mg/kg, read-out: F (absolute bioavailability)): 22.1%
IC50 ([2]; Table 9): 107 nM
IC50 ([2]; Table 10, unit inferred): 465 nM
TGI (tumor growth-inhibiting rate) ([9]; Table 17, 30 mg/kg): 38.8%
TV (tumor volume) ([9]; Table 17, 30 mg/kg, 19 days after inoculation): 666 ± 30 mm^3
Body weight After administration ([9]; Table 17, 30 mg/kg): 22.1 ± 0.3 g
Body weight Before administration ([9]; Table 17, 30 mg/kg): 20.6 ± 0.3 g
TGI (tumor growth-inhibiting rate) ([9]; Table 17, 100 mg/kg): 71.2%
TV (tumor volume) ([9]; Table 17, 100 mg/kg, 19 days after inoculation): 317 ± 44 mm^3
Body weight After administration ([9]; Table 17, 100 mg/kg): 21.5 ± 0.5 g
Body weight Before administration ([9]; Table 17, 100 mg/kg): 20.6 ± 0.4 g
TGI (tumor growth-inhibiting rate) ([9]; Table 18, 10 mg/kg, QD × 18): 30.8%
TV (tumor volume) ([9]; Table 18, 10 mg/kg, QD × 18, 23 days after inoculation): 729 ± 78 mm^3
Body weight After administration ([9]; Table 18, 10 mg/kg, QD × 18): 22.4 ± 0.5 g
Body weight Before administration ([9]; Table 18, 10 mg/kg, QD × 18): 20.7 ± 0.4 g
TGI (tumor growth-inhibiting rate) ([9]; Table 18, 30 mg/kg, QD × 18): 55.4%
TV (tumor volume) ([9]; Table 18, 30 mg/kg, QD × 18, 23 days after inoculation): 485 ± 65 mm^3
Body weight After administration ([9]; Table 18, 30 mg/kg, QD × 18): 22.4 ± 0.3 g
Body weight Before administration ([9]; Table 18, 30 mg/kg, QD × 18): 21.8 ± 0.3 g
IC50 ([3]; Table 9): 911 nM
IC50 ([3]; Table 10, unit inferred): 2250 nM

— patent publication US10300058B2, “Tyrosine kinase inhibitor and uses thereof” (Xuanzhu Pharma Co., Ltd., priority 2014, dated 2019)
